{"source": "ChEMBL document CHEMBL5465560", "about": "“Selectivity Literature for EUbOPEN Chemogenomic Library” (2024)", "key": {"[1]": {"target": "T1, Serine/threonine-protein kinase DCLK1 (Homo sapiens) (UniProt O15075)", "T1 sequence (whole entry)": "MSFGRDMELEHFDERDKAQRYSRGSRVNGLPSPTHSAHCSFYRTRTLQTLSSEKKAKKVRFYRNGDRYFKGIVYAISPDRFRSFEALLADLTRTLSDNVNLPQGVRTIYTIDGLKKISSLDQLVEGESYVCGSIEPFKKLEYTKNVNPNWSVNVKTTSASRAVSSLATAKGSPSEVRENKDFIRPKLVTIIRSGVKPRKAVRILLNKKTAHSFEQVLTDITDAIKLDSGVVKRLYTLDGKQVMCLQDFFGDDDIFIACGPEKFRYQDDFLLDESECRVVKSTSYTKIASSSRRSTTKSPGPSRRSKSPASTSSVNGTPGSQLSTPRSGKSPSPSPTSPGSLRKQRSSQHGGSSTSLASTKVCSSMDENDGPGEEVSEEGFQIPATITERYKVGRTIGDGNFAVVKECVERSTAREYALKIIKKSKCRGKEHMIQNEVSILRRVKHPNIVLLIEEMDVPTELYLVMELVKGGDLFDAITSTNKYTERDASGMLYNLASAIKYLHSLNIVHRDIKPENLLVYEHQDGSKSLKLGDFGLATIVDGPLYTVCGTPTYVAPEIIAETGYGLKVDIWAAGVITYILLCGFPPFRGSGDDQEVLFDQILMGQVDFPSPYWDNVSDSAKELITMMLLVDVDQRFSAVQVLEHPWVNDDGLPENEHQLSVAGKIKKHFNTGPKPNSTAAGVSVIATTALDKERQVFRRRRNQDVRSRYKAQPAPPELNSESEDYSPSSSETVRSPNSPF", "assay": "Selectivity interaction (Kinase panel (DSF assay)) EUB0001559a DCLK1"}, "[2]": {"target": "G protein-coupled receptor kinase 4 (Homo sapiens) (UniProt P32298)", "sequence (P32298 whole entry, looked up)": "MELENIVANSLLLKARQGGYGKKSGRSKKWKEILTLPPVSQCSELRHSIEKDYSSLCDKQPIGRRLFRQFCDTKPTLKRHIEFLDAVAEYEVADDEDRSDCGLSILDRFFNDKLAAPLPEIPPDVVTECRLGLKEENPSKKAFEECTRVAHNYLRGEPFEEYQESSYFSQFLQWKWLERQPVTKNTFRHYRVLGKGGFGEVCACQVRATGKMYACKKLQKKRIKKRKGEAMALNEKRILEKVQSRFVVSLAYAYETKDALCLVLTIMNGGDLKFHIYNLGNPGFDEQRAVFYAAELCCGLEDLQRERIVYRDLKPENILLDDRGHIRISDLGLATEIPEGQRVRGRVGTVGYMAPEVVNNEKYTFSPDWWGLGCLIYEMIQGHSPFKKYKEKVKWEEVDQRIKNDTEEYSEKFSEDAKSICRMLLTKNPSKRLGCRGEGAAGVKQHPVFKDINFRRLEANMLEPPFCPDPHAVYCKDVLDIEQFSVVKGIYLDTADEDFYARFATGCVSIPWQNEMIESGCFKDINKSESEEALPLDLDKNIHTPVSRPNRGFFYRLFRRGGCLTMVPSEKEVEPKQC", "assay": "Selectivity interaction (KinomeScan (DiscoverX)) EUB0000695a GRK4", "conditions": "at 100 nM"}, "[3]": {"target": "Cyclin-dependent kinase 7 (Homo sapiens, UniProt P50613)", "assay": "Selectivity interaction (KinomeScan (DiscoverX)) EUB0001079a CDK7", "conditions": "at 1 µM"}, "[4]": {"target": "Tudor domain-containing protein 3 (Homo sapiens) (UniProt Q9H7E2)", "sequence (Q9H7E2 whole entry, the tested form may be a part)": "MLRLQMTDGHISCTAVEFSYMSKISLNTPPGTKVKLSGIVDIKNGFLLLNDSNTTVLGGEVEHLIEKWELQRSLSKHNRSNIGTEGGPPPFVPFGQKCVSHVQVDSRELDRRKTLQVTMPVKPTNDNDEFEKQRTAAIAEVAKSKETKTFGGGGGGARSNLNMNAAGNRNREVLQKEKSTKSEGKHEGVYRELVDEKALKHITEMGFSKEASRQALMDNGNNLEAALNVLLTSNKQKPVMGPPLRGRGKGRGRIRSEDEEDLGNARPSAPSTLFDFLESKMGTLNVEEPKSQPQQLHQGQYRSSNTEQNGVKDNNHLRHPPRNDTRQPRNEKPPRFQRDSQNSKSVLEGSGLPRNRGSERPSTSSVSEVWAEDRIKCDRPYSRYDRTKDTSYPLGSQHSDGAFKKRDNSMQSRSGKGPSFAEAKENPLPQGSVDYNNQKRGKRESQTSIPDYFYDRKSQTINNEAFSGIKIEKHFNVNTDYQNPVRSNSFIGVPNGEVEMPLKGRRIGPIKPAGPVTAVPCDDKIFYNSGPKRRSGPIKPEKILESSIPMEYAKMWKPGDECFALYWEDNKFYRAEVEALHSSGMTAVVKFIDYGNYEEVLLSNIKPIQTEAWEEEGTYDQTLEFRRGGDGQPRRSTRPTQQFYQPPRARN", "assay": "Selectivity interaction (PWWP, WD40, and Tudor domain panel (DSLS measurements, literature)) EUB0000270b TDRD3"}, "[5]": {"target": "Tyrosine-protein kinase CSK (Homo sapiens) (UniProt P41240)", "sequence (P41240 2-450 limits assumed)": "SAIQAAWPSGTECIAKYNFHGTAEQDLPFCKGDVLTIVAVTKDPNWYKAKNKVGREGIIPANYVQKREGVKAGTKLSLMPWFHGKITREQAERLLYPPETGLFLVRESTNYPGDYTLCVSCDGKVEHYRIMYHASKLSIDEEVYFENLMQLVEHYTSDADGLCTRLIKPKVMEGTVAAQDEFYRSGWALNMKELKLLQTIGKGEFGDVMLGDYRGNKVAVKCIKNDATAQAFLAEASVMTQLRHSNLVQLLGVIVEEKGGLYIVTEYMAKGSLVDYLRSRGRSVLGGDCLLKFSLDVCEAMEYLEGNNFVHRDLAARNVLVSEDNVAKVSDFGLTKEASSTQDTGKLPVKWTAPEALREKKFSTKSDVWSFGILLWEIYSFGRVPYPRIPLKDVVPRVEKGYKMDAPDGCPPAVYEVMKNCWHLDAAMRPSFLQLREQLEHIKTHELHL", "conditions": "at 10 µM"}, "[6]": {"target": "Calcium/calmodulin-dependent protein kinase type 1G (Homo sapiens) (UniProt Q96NX5)", "sequence (Q96NX5 whole entry)": "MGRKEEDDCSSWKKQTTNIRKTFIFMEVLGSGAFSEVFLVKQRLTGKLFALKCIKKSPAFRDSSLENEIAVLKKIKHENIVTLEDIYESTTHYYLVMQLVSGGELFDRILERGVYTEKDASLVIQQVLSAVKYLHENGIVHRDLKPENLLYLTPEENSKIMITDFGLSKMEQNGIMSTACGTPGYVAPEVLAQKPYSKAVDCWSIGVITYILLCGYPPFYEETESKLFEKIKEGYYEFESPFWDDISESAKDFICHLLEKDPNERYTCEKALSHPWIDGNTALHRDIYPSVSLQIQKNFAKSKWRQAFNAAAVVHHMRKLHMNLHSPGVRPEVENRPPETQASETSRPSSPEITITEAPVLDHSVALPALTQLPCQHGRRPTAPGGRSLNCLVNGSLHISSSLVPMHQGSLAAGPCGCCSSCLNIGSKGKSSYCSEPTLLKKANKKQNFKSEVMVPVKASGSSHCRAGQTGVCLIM", "conditions": "at 10 µM"}, "[7]": {"target": "T2, MAP kinase-activated protein kinase 5 (Homo sapiens) (UniProt Q8IW41)", "T2 sequence (whole entry)": "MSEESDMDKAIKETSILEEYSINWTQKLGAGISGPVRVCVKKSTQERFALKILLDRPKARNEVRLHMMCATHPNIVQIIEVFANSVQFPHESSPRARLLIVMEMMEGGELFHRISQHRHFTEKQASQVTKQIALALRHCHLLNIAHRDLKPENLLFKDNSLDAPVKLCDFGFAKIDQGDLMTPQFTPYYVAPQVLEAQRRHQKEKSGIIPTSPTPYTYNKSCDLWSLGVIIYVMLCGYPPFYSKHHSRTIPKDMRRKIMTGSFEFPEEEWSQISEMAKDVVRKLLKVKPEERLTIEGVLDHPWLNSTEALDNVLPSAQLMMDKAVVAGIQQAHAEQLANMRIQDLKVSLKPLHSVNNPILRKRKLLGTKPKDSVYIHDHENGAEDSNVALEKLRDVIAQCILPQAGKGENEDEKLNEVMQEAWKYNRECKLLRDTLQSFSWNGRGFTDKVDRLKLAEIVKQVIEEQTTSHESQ", "assay": "Selectivity interaction (Kinase panel (literature)) EUB0001199aCl MAPKAPK5", "conditions": "at 1 µM"}, "[8]": {"target": "Casein kinase I isoform alpha (Homo sapiens, UniProt P48729)", "sequence (P48729 2-337 limits assumed)": "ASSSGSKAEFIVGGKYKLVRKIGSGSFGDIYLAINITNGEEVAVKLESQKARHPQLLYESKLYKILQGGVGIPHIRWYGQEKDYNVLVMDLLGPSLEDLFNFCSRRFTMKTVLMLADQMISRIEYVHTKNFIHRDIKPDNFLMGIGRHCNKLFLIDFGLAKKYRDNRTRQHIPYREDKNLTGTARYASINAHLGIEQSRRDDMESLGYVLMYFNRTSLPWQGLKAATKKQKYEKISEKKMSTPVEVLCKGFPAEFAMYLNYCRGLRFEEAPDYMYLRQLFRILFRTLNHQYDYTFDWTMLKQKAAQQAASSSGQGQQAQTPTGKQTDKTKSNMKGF", "assay": "Selectivity interaction (Kinase panel (literature)) EUB0001199aCl CSNK1A1", "conditions": "at 1 µM"}, "[9]": {"target": "T3, Protein arginine N-methyltransferase 9 (Homo sapiens) (UniProt Q6P2P2)", "T3 sequence (whole entry)": "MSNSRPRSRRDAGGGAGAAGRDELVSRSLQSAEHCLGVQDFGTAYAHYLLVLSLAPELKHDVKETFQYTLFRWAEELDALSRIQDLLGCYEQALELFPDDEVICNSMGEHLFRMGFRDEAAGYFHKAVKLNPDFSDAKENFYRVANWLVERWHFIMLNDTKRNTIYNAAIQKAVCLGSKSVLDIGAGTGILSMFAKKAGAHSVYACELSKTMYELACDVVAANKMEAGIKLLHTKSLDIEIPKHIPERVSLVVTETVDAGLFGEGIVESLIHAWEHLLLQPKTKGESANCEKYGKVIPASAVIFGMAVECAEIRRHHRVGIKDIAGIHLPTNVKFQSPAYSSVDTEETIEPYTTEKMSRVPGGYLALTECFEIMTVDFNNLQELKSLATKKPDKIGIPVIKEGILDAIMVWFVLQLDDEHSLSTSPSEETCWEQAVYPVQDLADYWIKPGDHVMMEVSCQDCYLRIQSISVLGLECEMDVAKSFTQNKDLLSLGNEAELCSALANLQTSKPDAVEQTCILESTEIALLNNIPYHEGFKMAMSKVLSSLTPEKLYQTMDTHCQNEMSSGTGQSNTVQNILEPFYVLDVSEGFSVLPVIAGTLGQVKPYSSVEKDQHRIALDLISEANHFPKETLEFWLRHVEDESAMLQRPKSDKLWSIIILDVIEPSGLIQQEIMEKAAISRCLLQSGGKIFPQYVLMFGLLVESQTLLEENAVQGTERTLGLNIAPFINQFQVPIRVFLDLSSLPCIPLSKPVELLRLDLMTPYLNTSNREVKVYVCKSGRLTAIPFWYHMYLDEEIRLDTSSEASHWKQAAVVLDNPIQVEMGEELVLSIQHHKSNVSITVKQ", "assay": "Selectivity interaction (Methyltransferase screen (Scintillation proximity assays)) EUB0000255b PRMT9"}, "[10]": {"target": "Dual specificity mitogen-activated protein kinase kinase 2 (Homo sapiens) (UniProt P36507)", "sequence (P36507 whole entry)": "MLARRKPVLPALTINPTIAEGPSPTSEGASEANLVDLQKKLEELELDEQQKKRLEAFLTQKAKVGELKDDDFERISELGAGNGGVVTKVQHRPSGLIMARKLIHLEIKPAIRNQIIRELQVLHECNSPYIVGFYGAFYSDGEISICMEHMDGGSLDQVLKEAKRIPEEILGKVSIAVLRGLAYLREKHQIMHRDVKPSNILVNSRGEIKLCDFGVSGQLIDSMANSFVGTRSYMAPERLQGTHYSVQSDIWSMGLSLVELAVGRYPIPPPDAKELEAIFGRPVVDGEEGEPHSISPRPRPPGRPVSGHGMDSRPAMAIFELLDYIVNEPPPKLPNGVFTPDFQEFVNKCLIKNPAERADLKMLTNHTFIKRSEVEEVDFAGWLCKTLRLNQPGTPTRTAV", "assay": "Selectivity interaction (ActivX KiNativ screen (kinase selectivity in THP-1 cell lysates)) EUB0000639a MAP2K2", "assay_type": "subcellular", "conditions": "lysate"}, "[11]": {"target": "Focal adhesion kinase 1 (Homo sapiens, UniProt Q05397)", "sequence (Q05397 2-1052 limits assumed)": "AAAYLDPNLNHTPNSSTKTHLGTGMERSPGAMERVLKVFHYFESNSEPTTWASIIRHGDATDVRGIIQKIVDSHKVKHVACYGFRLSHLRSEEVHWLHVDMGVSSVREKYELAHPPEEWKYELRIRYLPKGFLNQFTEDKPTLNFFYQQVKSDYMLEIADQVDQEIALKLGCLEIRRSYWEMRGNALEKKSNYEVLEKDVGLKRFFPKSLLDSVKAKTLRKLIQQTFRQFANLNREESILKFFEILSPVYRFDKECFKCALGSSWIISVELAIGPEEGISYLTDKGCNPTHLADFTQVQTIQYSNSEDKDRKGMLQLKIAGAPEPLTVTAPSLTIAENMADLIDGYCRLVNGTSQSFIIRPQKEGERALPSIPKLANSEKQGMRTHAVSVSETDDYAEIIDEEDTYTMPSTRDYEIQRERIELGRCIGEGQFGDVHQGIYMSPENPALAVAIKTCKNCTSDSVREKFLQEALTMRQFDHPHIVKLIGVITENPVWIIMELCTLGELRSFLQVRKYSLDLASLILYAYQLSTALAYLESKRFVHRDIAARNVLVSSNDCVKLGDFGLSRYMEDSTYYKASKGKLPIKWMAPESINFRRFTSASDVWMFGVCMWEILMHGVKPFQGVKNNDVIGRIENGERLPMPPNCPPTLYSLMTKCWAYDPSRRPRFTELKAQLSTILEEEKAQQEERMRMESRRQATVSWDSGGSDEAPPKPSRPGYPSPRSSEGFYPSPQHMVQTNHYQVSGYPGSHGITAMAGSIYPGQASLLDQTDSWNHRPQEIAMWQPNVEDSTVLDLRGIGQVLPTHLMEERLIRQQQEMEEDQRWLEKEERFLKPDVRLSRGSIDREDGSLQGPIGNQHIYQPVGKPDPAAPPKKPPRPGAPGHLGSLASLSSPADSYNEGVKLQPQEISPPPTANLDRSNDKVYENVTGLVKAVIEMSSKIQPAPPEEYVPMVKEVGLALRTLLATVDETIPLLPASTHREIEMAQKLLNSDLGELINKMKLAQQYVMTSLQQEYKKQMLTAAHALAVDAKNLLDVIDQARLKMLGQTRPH", "assay": "Selectivity interaction (ActivX KiNativ screen (kinase selectivity in THP-1 cell lysates)) EUB0000639a PTK2", "assay_type": "subcellular", "conditions": "lysate, at 0.04 µM"}, "[12]": {"target": "Ephrin type-A receptor 2 (Homo sapiens) (UniProt P29317)", "sequence (P29317 whole entry)": "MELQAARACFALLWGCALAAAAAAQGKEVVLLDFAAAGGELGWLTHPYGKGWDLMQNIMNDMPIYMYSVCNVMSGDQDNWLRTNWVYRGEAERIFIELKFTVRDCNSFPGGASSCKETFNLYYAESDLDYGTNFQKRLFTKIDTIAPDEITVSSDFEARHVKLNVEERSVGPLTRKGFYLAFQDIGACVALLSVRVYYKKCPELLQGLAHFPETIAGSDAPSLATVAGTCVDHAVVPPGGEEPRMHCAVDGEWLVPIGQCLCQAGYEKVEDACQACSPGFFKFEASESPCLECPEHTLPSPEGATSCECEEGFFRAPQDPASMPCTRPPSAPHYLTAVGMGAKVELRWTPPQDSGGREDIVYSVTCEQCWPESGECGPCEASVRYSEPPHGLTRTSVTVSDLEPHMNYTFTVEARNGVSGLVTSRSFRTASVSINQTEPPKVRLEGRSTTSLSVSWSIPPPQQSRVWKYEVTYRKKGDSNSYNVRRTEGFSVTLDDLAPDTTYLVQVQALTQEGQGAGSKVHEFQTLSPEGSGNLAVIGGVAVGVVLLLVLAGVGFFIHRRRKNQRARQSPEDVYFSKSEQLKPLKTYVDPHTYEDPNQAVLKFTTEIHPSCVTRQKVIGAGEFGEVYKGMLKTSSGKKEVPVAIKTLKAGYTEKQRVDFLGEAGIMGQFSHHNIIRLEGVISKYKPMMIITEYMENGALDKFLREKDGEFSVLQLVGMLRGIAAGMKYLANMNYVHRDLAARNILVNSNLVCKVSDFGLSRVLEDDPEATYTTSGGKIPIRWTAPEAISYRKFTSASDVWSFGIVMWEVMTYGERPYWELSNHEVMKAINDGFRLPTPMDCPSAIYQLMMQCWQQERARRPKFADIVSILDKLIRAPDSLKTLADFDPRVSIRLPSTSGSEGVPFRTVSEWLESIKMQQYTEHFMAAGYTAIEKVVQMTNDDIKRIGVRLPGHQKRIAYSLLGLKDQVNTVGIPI", "assay": "Selectivity interaction (Ambit KINOMEscan and KiNATiv profiling in Jurkat cells) EUB0000090b EPHA2", "assay_type": "cell-based", "conditions": "at 1 µM"}}}
{"molecule": "CN(C(=O)c1cnn2cccnc12)c1cc2c(cc1N1CCOCC1)C(=O)N(C[C@@H](F)C(C)(C)O)C2", "values": [{"measurement": "dTM", "setting": "[1]", "value": 0.8, "unit": "K"}]}
{"molecule": "Cc1cc(F)c(C(=O)Nc2cccc(-c3nncn3C(C)C)n2)cc1-n1cnc(C2CC2)c1", "values": [{"measurement": "% of control", "setting": "[2]", "value": 100, "unit": "%"}]}
{"molecule": "Nc1cnc(N2CCc3cc(S(=O)(=O)Nc4c(F)cc(Cl)cc4F)cc(N4CCCC4=O)c32)nc1", "note": "[TP-020n]", "values": [{"measurement": "% of control", "setting": "[3]", "value": 100, "unit": "%"}]}
{"molecule": "Cc1cc(CN)cc(C)c1-c1ncn(C)c1-c1cncn1C", "values": [{"measurement": "dTagg", "setting": "[4]", "value": 0.8, "unit": "K"}]}
{"molecule": "Cc1cc([C@@H](C)Nc2ccccc2C(=O)O)c2nc(N3CCOCC3)cc(=O)n2c1", "note": "[AZD-6482]", "values": [{"measurement": "% of control", "setting": "[5]", "value": 100, "unit": "%"}, {"measurement": "% of control", "setting": "[6]", "value": 91, "unit": "%"}]}
{"molecule": "CN1Cc2nccc(-c3cn(C)nc3-c3ccc(F)cc3)c2C1=O", "values": [{"measurement": "% of inhibition", "setting": "[7]", "value": -1, "unit": "%"}, {"measurement": "% of inhibition", "setting": "[8]", "value": 51, "unit": "%"}]}
{"molecule": "COCCN1CCC(c2cc(CN(C)C(=O)c3cccc(Oc4ccccc4)c3)ccn2)CC1", "values": [{"measurement": "% activity", "setting": "[9]; at 1 µM", "value": 90, "unit": "%"}, {"measurement": "% activity", "setting": "[9]; at 10 µM", "value": "> 90", "unit": "%"}]}
{"molecule": "CC[C@@H]1[C@H](F)C(=O)N[C@@H]1COc1nccc2cc(C(N)=O)c(OC)cc12", "note": "[ZIMLOVISERTIB]", "values": [{"measurement": "% of inhibition", "setting": "[10]; at 0.01 µM", "value": -25.6, "unit": "%"}, {"measurement": "% of inhibition", "setting": "[10]; at 0.04 µM", "value": -4.8, "unit": "%"}, {"measurement": "% of inhibition", "setting": "[10]; at 0.2 µM", "value": -3.6, "unit": "%"}, {"measurement": "% of inhibition", "setting": "[10]; at 1 µM", "value": 3.1, "unit": "%"}, {"measurement": "% of inhibition", "setting": "[10]; at 5 µM", "value": 18.5, "unit": "%"}, {"measurement": "% of inhibition", "setting": "[11]", "value": -20.7, "unit": "%"}]}
{"molecule": "CN(C)C/C=C/C(=O)Nc1ccc(C(=O)N2CCCC(Nc3ncc(Cl)c(-c4c[nH]c5ccccc45)n3)C2)cc1", "note": "(configuration not stated)", "values": [{"measurement": "% of control", "setting": "[12]", "value": 98, "unit": "%"}]}
